The values that follow come from patent publication US7186831B2, “5-halo-2-alkyl[1,2,4]triazolo[1,5-a]pyrimidin-7-amines” (priority 2001, dated 2007).

The data set can be described thus: log P by HPLC. Format: physicochemical. To be noted: HPLC, gradient method, acetonitrile/0.1% aqueous phosphoric acid; EEC directive 79/831 Annex V. A8.
As a reminder, the logP is the decadic logarithm of the partition coefficient of the neutral form, usually between octanol and water. With `CCc1nc2nc(Cl)c(-c3c(F)cc(F)cc3F)c(N3CCCC3)n2n1` [compound 72], the logP was 3.29. In turn, `CCc1nc2nc(Cl)c(-c3c(F)cc(F)cc3F)c(N3CCCCC3)n2n1` [compound 73] registered a logP of 3.94. With `CCCNc1c(-c2c(F)cc(F)cc2F)c(Cl)nc2nc(CC)nn12` [compound 74], the logP amounted to 3.14. In the case of `CCc1nc2nc(Cl)c(-c3c(F)cc(F)cc3F)c(NC3CCCC3)n2n1` [compound 75], the logP was found to be 3.66. Regarding `CCc1nc2nc(Cl)c(-c3c(F)cc(F)cc3F)c(NC(C)C)n2n1` [compound 76], the logP is listed as 3.15. Under `CCc1nc2nc(Cl)c(-c3c(F)cc(F)cc3F)c(N(CC)CC)n2n1` [compound 77] stands 3.71; under `CCc1nc2nc(Cl)c(-c3c(F)cc(F)cc3F)c(NCCOC)n2n1` [compound 78], 2.68. Then `CCc1nc2nc(Cl)c(-c3c(F)cc(F)cc3F)c(NC3CC3)n2n1` [compound 79], with 2.85. Take `CCc1nc2nc(Cl)c(-c3c(F)cc(F)cc3F)c(N3CCSCC3)n2n1` [compound 80]: the logP turned out to be 3.53. The compound `CCc1nc2nc(Cl)c(-c3c(F)cc(F)cc3F)c(NCC3CC3)n2n1` [compound 81] had a logP of 3.23. Then `Cc1nc2nc(Cl)c(-c3ccc(F)c(Cl)c3)c(NC(C)C)n2n1` [compound 82], with 3.01. `Cc1nc2nc(Cl)c(-c3c(F)cc(F)cc3F)c(N3CC=CCC3)n2n1` [compound 83] returned a lipophilicity (logP) of 3.2. Under `CC(C)NNc1c(-c2c(F)cc(F)cc2F)c(Cl)nc2nc(C(F)(F)F)nn12` [compound 84] stands 3.68; under `CC1=CCCN(c2c(-c3c(F)cc(F)cc3F)c(Cl)nc3nc(C)nn23)C1` [compound 85], 3.57. Then `Cc1nc2nc(Cl)c(-c3c(F)cc(F)cc3F)c(N(C)C)n2n1` [compound 86], with 2.49; and `CCNc1c(-c2c(F)cc(F)cc2F)c(Cl)nc2nc(C)nn12` [compound 87], with 2.44; and `Cc1nc2nc(Cl)c(-c3c(F)cc(F)cc3F)c(NC(C)(C)C(F)(F)F)n2n1` [compound 88], with 3.7. Consider `Cc1nc2nc(Cl)c(-c3c(F)cc(F)cc3F)c(N3CCOCC3)n2n1` [compound 89], for which the logP is reported as 2.43. `CNc1c(-c2c(F)cc(F)cc2F)c(Cl)nc2nc(C)nn12` [compound 90] came in with a logP of 2.12. `CCNc1c(-c2c(F)cc(F)cc2F)c(Cl)nc2nc(CC)nn12` [compound 91]: the logP is reported as 2.78.

Consider `CCc1nc2nc(Cl)c(-c3c(F)cc(F)cc3F)c(N3CCOCC3)n2n1` [compound 92], for which the logP amounted to 2.8. Consider `CCc1nc2nc(Cl)c(-c3c(F)cc(F)cc3F)c(NC)n2n1` [compound 93], for which the logP was 2.44. Then `CCc1nc2nc(Cl)c(-c3c(F)cc(F)cc3F)c(N3CCCCC3C(F)(F)F)n2n1` (stereo not shown) [compound 94], with 4.27; and `C=C(C)CN(CC)c1c(-c2c(F)cc(F)cc2F)c(Cl)nc2nc(C(F)(F)F)nn12` [compound 95], with 4.69; and `C=C(C)CN(CC)c1c(-c2ccc(F)cc2F)c(Cl)nc2nc(C)nn12` [compound 96], with 3.73. Then `Cc1nc2nc(Cl)c(-c3ccc(F)c(Cl)c3)c(NC(C)C(F)(F)F)n2n1` (stereo not shown) [compound 97], with 3.32. Take `Cc1nc2nc(Cl)c(-c3c(F)cc(F)cc3F)c(N3CCC(O)C3)n2n1` (stereo not shown) [compound 98]: the logP was found to be 1.85.

Compound `Cc1nc2nc(Cl)c(-c3c(F)cc(F)cc3F)c(N3CCCC(O)C3)n2n1` (stereo not shown) [compound 99] had a lipophilicity (logP) of 2.15. Compound `CN(C)c1c(-c2c(F)cc(F)cc2F)c(Cl)nc2nc(C(F)(F)F)nn12` [compound 100] had a logP of 3.6. Then `CC1CN(c2c(-c3c(F)cc(F)cc3F)c(Cl)nc3nc(C(F)(F)F)nn23)CC(C)O1` (stereo not shown) [compound 101], with 4.18; and `CCNc1c(-c2c(F)cc(F)cc2F)c(Cl)nc2nc(C(F)(F)F)nn12` [compound 102], with 3.5; and `Fc1cc(F)c(-c2c(Cl)nc3nc(C(F)(F)F)nn3c2N2CCCC2)c(F)c1` [compound 103], with 3.92. Then `Fc1cc(F)c(-c2c(Cl)nc3nc(C(F)(F)F)nn3c2N2CCCCC2)c(F)c1` [compound 104], with 4.46; and `CC(C)(Nc1c(-c2c(F)cc(F)cc2F)c(Cl)nc2nc(C(F)(F)F)nn12)C(F)(F)F` [compound 105], with 4.37. In turn, `CCCNc1c(-c2c(F)cc(F)cc2F)c(Cl)nc2nc(C(F)(F)F)nn12` [compound 106] displayed a logP of 3.82.

Compound `COCCNc1c(-c2c(F)cc(F)cc2F)c(Cl)nc2nc(C(F)(F)F)nn12` [compound 107] returned a log partition coefficient (logP) of 3.38. `CNc1c(-c2c(F)cc(F)cc2F)c(Cl)nc2nc(C(F)(F)F)nn12` [compound 108] had a logP of 3.17. Under `Fc1cc(F)c(-c2c(Cl)nc3nc(C(F)(F)F)nn3c2N2CCCCC2C(F)(F)F)c(F)c1` (stereo not shown) [compound 109] stands 4.76; under `Fc1cc(F)c(-c2c(Cl)nc3nc(C(F)(F)F)nn3c2N2CCSCC2)c(F)c1` [compound 110], 4.09.

`Fc1cc(F)c(-c2c(Cl)nc3nc(C(F)(F)F)nn3c2NCC2CC2)c(F)c1` [compound 111] yielded a logP of 3.89. In turn, `Cc1nc2nc(Cl)c(-c3c(F)cc(F)cc3F)c(N3CCSC3)n2n1` [compound 112] displayed a logP of 2.84. Then `Cc1nc2nc(Cl)c(-c3c(F)cc(F)cc3F)c(NC(C)C(F)(F)F)n2n1` (stereo not shown) [compound 113], with 3.03. `C=C(C)CN(CC)c1c(-c2c(F)cccc2Cl)c(Cl)nc2nc(C)nn12` [compound 114] had a logP of 3.91. Take `COC(=O)C(CO)Nc1c(-c2c(F)cc(F)cc2F)c(Cl)nc2nc(C)nn12` (stereo not shown) [compound 115]: the logP was determined as 1.93. Under `COCC(C)Nc1c(-c2c(F)cc(F)cc2F)c(Cl)nc2nc(C)nn12` (stereo not shown) [compound 116] stands 2.64. Then `Cc1nc2nc(Cl)c(-c3c(F)cc(F)cc3F)c(N3C(C)C=CC3C)n2n1` (stereo not shown) [compound 117], with 3.52; and `COC(=O)C(Nc1c(-c2c(F)cc(F)cc2F)c(Cl)nc2nc(C)nn12)C(C)C` (stereo not shown) [compound 118], with 3.11. The compound `COC(=O)C(COC(C)(C)C)Nc1c(-c2c(F)cc(F)cc2F)c(Cl)nc2nc(C)nn12` (stereo not shown) [compound 120] registered a logP of 3.47.

With `Cc1nc2nc(Cl)c(-c3c(F)cc(F)cc3F)c(NC(C)CO)n2n1` (stereo not shown) [compound 122], the logP came to 1.93. Under `COC(OC)C(C)Nc1c(-c2c(F)cc(F)cc2F)c(Cl)nc2nc(C)nn12` (stereo not shown) [compound 123] stands 2.74; under `COC(=O)C(C)Nc1c(-c2c(F)cc(F)cc2F)c(Cl)nc2nc(C)nn12` (stereo not shown) [compound 124], 2.45. As to `COC(=O)CNc1c(-c2c(F)cc(F)cc2F)c(Cl)nc2nc(C)nn12` [compound 125], the logP is 2.13. Then `Cc1nc2nc(Cl)c(-c3c(F)cc(F)cc3F)c(NC(C)C(=O)OC(C)(C)C)n2n1` (stereo not shown) [compound 126], with 3.44; and `CCc1nc2nc(Cl)c(-c3c(F)cc(F)cc3F)c(N(N)CC(C)C)n2n1` [compound 127], with 3.47; and `CCN(CCOC)c1c(-c2ccc(F)cc2F)c(Cl)nc2nc(C)nn12` [compound 128], with 2.84. Then `Cc1nc2nc(Cl)c(-c3c(F)cc(F)cc3F)c(N(N)CC(C)C)n2n1` [compound 129], with 3.06; and `Cc1nc2nc(Cl)c(-c3c(F)cccc3Cl)c(N(N)CC(C)C)n2n1` [compound 130], with 3.12. Under `Cc1nc2nc(Cl)c(-c3ccc(F)c(Cl)c3)c(N(N)CC(C)C)n2n1` [compound 131] stands 3.31; under `Cc1nc2nc(Cl)c(-c3c(F)cccc3Cl)c(NC(C)C(F)(F)F)n2n1` (stereo not shown) [compound 132], 3.01.

The compound `C=C(C)CN(CC)c1c(-c2ccccc2Cl)c(Cl)nc2nc(C)nn12` [compound 133] yielded a logP of 3.9. Take `Cc1nc2nc(Cl)c(-c3c(F)cc(F)cc3F)c(NC(C)C(C)C)n2n1` (stereo not shown) [compound 134]: the logP was determined as 3.37.

In turn, `Cc1nc2nc(Cl)c(-c3c(F)cccc3F)c(NOCC(C)C)n2n1` [compound 135] came in with a logP of 2.88. For the compound `CCONc1c(-c2c(F)cccc2F)c(Cl)nc2nc(C)nn12` [compound 136], the logP is on record as 2.22. Then `Cc1nc2nc(Cl)c(-c3c(F)cccc3F)c(NOCc3cccc(Cl)c3)n2n1` [compound 137], with 3.21; and `Cc1nc2nc(Cl)c(-c3c(F)cccc3F)c(NOCc3ccc(Cl)cc3)n2n1` [compound 138], with 3.23.

In turn, `CCC(C)ONc1c(-c2c(F)cccc2F)c(Cl)nc2nc(C)nn12` (stereo not shown) [compound 139] yielded a logP of 2.78. Compound `C=CCONc1c(-c2c(F)cccc2F)c(Cl)nc2nc(C)nn12` [compound 140] registered a logP of 2.38. Then `Cc1nc2nc(Cl)c(-c3c(F)cccc3F)c(NOC(C)(C)C)n2n1` [compound 141], with 2.68; and `Cc1nc2nc(Cl)c(-c3c(F)cccc3F)c(NOC3CCCCO3)n2n1` (stereo not shown) [compound 142], with 2.54. Then `CON(C)c1c(-c2c(F)cccc2F)c(Cl)nc2nc(C)nn12` [compound 143], with 2.54; and `Cc1nc2nc(Cl)c(-c3c(F)cccc3F)c(NOC(C)C)n2n1` [compound 144], with 2.46; and `Cc1nc2nc(Cl)c(-c3c(F)cc(F)cc3F)c(NCC(C)C)n2n1` [compound 145], with 3.14. Take `Cc1nc2nc(Cl)c(-c3c(F)cc(F)cc3F)c(NCC(C)(C)C)n2n1` [compound 146]: the logP was 3.5. In turn, `CCC(C)Nc1c(-c2c(F)cc(F)cc2F)c(Cl)nc2nc(C)nn12` (stereo not shown) [compound 147] displayed a logP of 3.1. Then `Cc1nc2nc(Cl)c(-c3c(F)cc(F)cc3F)c(N(C)CCN(C)C)n2n1` [compound 148], with 1.5; and `C#CCN(C)c1c(-c2c(F)cc(F)cc2F)c(Cl)nc2nc(C)nn12` [compound 149], with 2.77.
